From patent publication US11415579B2, “Assay for measuring a rate of reaction between a target and a ligand candidate” (Imperial College Innovations Ltd., priority 2016, dated 2022)

How the values were obtained:
Cdk2(T182C) (C177A) = target: T1, Cdk2(T182C) (C177A) (Homo sapiens, UniProt P24941, C177A/T182C); experiment: Kinetic thiol consumption assay with Cdk2 mutant T182C; assay type: binding; parameters: key to Rate enhancement, Cdk2 T182C: rate constant with Cdk2 ÷ rate constant with model thiol (fold); details: additional mutation C177A; for Rate constant with Cdk2 T182C: Protein: Cdk2, cysteine position T182C, in h^-1
T1 construct: poly-histidine; made in house; host or cells: E. coli
Experimental: (§1) To wells containing 150 μL thiol (Cdk2 or model thiol) (5 μM) in degassed phosphate buffer (pH 8) was added immobilized TCEP beads (2% v/v).
(§2) After incubation of the fluorescence plates for 1 hour at room temperature, fluorescence measurements (excitation/emission of 380/470 nm) were taken on a PerkinElmer EnVision multilabel plate reader and processed with EnVision Workstation version 1.12.
(§3) Fluorescence measurements were normalized against a DMSO/thiol only control and plotted against time.
(§4) Rate constants were calculated using GraphPad software Prism version 6 by fitting a first order exponential decay to the data. The rate constant for each acrylamide with Cdk2 was divided by the rate constant for that fragment with the model thiol to provide the rate enhancement for each ligand candidate.
(§5) A further set of set of additional Cdk2 mutants were screened, all containing the C177A mutation and therefore with only one cysteine on the surface: • F80C (without the K278C mutation) • H71C • S276C • N272 • T182C • R122C • S181C
(§6) Mutations were introduced by site-directed mutagenesis and the resulting cDNA was cloned into the pRSETA bacterial expression vector to generate a poly-histidine tagged Cdk2 fusion that was purified from E. coli using standard techniques.

Cdk2(S276C) (C177A) = target: T2, Cdk2(S276C) (C177A) (Homo sapiens, UniProt P24941, C177A/S276C); experiment: Kinetic thiol consumption assay with Cdk2 mutant S276C; assay type: binding; parameters: key to Rate enhancement, Cdk2 S276C: rate constant with Cdk2 ÷ rate constant with model thiol (fold); details: additional mutation C177A; for Rate constant with Cdk2 S276C: Protein: Cdk2, cysteine position S276C, in h^-1
T2 construct: poly-histidine; made in house; host or cells: E. coli
Experimental: as §1, §2, §3, §4, §5, §6

Cdk2(H71C) (C177A) = target: T3, Cdk2(H71C) (C177A) (Homo sapiens, UniProt P24941, C177A/H71C); experiment: Kinetic thiol consumption assay with Cdk2 mutant H71C; assay type: binding; parameters: key to Rate enhancement, Cdk2 H71C: rate constant with Cdk2 ÷ rate constant with model thiol (fold); details: additional mutation C177A; for Rate constant with Cdk2 H71C: Protein: Cdk2, cysteine position H71C, in h^-1
T3 construct: poly-histidine; made in house; host or cells: E. coli
Experimental: as §1, §2, §3, §4, §5, §6

[1] = target: T4, human cyclin-dependent kinase 2 (Cdk2) (Homo sapiens, UniProt P24941); experiment: Kinetic thiol consumption assay with wild type Cdk2 (C177); assay type: binding; parameters: key to Rate enhancement, Cdk2 WT: k(Cdk2) divided by k(model thiol); Rate constant with Cdk2 (k(Cdk2)): unit not given here; details: for Rate enhancement, Cdk2 WT: no additional mutations; for Rate constant with Cdk2 WT: Protein: Cdk2, cysteine position WT, in h^-1
T4 construct: poly-histidine; made in house; host or cells: E. coli
Experimental: (§7) A library of 120 acrylamides was screened against a) human cyclin-dependent kinase 2 (Cdk2, which contains one surface exposed cysteine residue—C177), prepared by cloning cDNA into the pRSETA bacterial expression vector to generate a poly-histidine tagged Cdk2 fusion that was purified from E. coli using standard techniques, and b) a model thiol (specific details are given below). The structures of these 120 acrylamides are set out in Table 1, above.
as §1, §2, §3, §4

Cdk2(R122C) (C177A) = target: T5, Cdk2(R122C) (C177A) (Homo sapiens, UniProt P24941, C177A/R122C); experiment: Kinetic thiol consumption assay with Cdk2 mutant R122C; assay type: binding; parameters: key to Rate enhancement, Cdk2 R122C: rate constant with Cdk2 ÷ rate constant with model thiol (fold); details: additional mutation C177A; for Rate constant with Cdk2 R122C: Protein: Cdk2, cysteine position R122C, in h-1
T5 construct: poly-histidine; made in house; host or cells: E. coli
Experimental: as §1, §2, §3, §4, §5, §6

Cdk2(C177A, F80C) = target: T6, Cdk2(C177A, F80C) (Homo sapiens, UniProt P24941, C177A/F80C); experiment: Kinetic thiol consumption assay with Cdk2 mutant F80C, incl. kobs versus concentration (Kd, k2); assay type: binding; parameters: key to Rate enhancement, Cdk2 F80C: Cdk2 rate constant divided by model-thiol rate constant; details: additional mutation C177A; for Rate constant with Cdk2 F80C: Protein: Cdk2, cysteine position F80C, in h^-1
T6 construct: poly-histidine; made in house; host or cells: E. coli
Experimental: Therefore the assay can be used to calculate both k2 and Kd by experimentally determining kobs at a suitable range of ligand candidate concentrations. Typically Kd and k2 would then be determined by fitting a hyperbolic curve to a plot of kobs against ligand candidate concentration (FIG. 9).
as §1, §2, §3, §4, §5, §6
Rate constants were calculated as described in the methodology section of Examples 1 and 2.

Cdk2(N272C) (C177A) = target: T7, Cdk2(N272C) (C177A) (Homo sapiens, UniProt P24941, C177A/N272C); experiment: Kinetic thiol consumption assay with Cdk2 mutant N272C; assay type: binding; parameters: key to Rate enhancement, Cdk2 N272: rate constant with Cdk2 ÷ rate constant with model thiol (fold); details: for Rate enhancement, Cdk2 N272: Cdk2 N272, additional mutation C177A; for Rate constant with Cdk2 N272C: Protein: Cdk2, cysteine position N272C, additional mutation C177A, in h^-1
T7 construct: poly-histidine; made in house; host or cells: E. coli
Experimental: as §1, §2, §3, §4, §5, §6

[2] = Kinetic thiol consumption assay with model thiol glutathione; assay type: physicochemical; parameters: Rate constant with glutathione (k(GSH)): unit not given here; details: for Rate constant with Glutathione: Protein: Glutathione, cysteine position NA, in h-1
Experimental: as §7, §1, §2, §3, §4
The model thiol in Example 1 is glutathione (GSH). Hits were defined as fragments where kCdk2/kGSH>5.8 (empirically determined as 3 standard deviations over the mean).

Cdk2(S181C) (C177A) = target: T8, Cdk2(S181C) (C177A) (Homo sapiens, UniProt P24941, C177A/S181C); experiment: Kinetic thiol consumption assay with Cdk2 mutant S181C; assay type: binding; parameters: key to Rate enhancement, Cdk2 S181C: rate constant with Cdk2 ÷ rate constant with model thiol (fold); details: additional mutation C177A; for Rate constant with Cdk2 S181C: Protein: Cdk2, cysteine position S181C, in h^-1
T8 construct: poly-histidine; made in house; host or cells: E. coli
Experimental: as §1, §2, §3, §4, §5, §6

[3] = 500 μM ligand, 5 μM thiol, phosphate buffer pH 8

| Compound | Rate enhancement, Cdk2 T182C (Cdk2(T182C) (C177A)) | Rate constant with Cdk2 T182C (Cdk2(T182C) (C177A)) | Rate enhancement, Cdk2 S276C (Cdk2(S276C) (C177A)) | Rate constant with Cdk2 S276C (Cdk2(S276C) (C177A)) | Rate enhancement, Cdk2 H71C (Cdk2(H71C) (C177A)) | Rate constant with Cdk2 H71C (Cdk2(H71C) (C177A)) | Rate enhancement, Cdk2 WT [1] | Rate constant with Cdk2 WT [1] | Rate enhancement, Cdk2 R122C (Cdk2(R122C) (C177A)) | Rate constant with Cdk2 R122C (Cdk2(R122C) (C177A)) | Rate enhancement, Cdk2 F80C (Cdk2(C177A, F80C)) | Rate constant with Cdk2 F80C (Cdk2(C177A, F80C)) | Rate enhancement, Cdk2 N272 (Cdk2(N272C) (C177A)) | Rate constant with Cdk2 N272C (Cdk2(N272C) (C177A)) | Rate constant with Glutathione [2] | Rate enhancement, Cdk2 S181C (Cdk2(S181C) (C177A)) | Rate constant with Cdk2 S181C (Cdk2(S181C) (C177A)) | Rate constant with Cdk2 (k(Cdk2)) [1, 3] | k(Cdk2)/k(GSH) rate enhancement ([1]; model thiol glutathione) | Rate constant with glutathione (k(GSH)) [2, 3] |
| --- | --- | --- | --- | --- | --- | --- | --- | --- | --- | --- | --- | --- | --- | --- | --- | --- | --- | --- | --- | --- |
| C=CS(=O)(=O)c1ccccc1 [EN001] | 1.394 | 8.524 | 0.5145 | 3.146 | 0.3485 | 2.131 | 1.608 | 9.832 | 0.2211 | 1.352 | 0.0006656 | 0.00407 | 0.3977 | 2.432 | 6.115 | 0.06554 | 0.4008 | – | – | – |
| C=CC(=O)N(CC(=O)N1CCCC1)CC1CCCO1 (stereo not shown) [CA-080/239] | 0.9651 | 0.01162 | 0.2885 | 0.003474 | 0 | – | 0.2317 | 0.00279 | 0.173 | 0.002083 | 0.08364 | 0.001007 | 0.2756 | 0.003318 | 0.01204 | 0.1377 | 0.001658 | – | – | – |
| C=CC(=O)N(Cc1ccco1)Cc1ccco1 [CA-099/153] | 2.038 | 0.4326 | 2.266 | 0.481 | 0.2907 | 0.06172 | 1.366 | 0.2899 | 2.423 | 0.5145 | 0.1651 | 0.03506 | 2.393 | 0.5081 | 0.2123 | 1.479 | 0.314 | – | – | – |
| C=CC(=O)N1CCN(Cc2noc(C3CC3)n2)CC1 [CA-091] | 2.003 | 0.01551 | 0.9396 | 0.007277 | 0.1944 | 0.001506 | 0.2968 | 0.002299 | 0.6918 | 0.005358 | 0.1028 | 0.0007964 | 0.3769 | 0.002919 | 0.007745 | 1.139 | 0.008821 | 0.0023 | 0.4376 | 0.00525 |
